Test results taken from publication PMC9687798, “Atypical Substrates of the Organic Cation Transporter 1” (Biomolecules, 2022).
Positions count from the first letter of the chain named. Entries after “also recorded” stand apart in the source; their conditions may differ.

Key:
human OCT1*1 (wild-type) [1] = biological target: T1, human OCT1*1 (wild-type) (Homo sapiens, UniProt O15245); test: Cellular uptake ratio, OCT1-overexpressing HEK293 cells vs empty vector; assay type: cell-based; settings: based on ratio uptake data at 1 µM
T1 sequence (O15245 1-554): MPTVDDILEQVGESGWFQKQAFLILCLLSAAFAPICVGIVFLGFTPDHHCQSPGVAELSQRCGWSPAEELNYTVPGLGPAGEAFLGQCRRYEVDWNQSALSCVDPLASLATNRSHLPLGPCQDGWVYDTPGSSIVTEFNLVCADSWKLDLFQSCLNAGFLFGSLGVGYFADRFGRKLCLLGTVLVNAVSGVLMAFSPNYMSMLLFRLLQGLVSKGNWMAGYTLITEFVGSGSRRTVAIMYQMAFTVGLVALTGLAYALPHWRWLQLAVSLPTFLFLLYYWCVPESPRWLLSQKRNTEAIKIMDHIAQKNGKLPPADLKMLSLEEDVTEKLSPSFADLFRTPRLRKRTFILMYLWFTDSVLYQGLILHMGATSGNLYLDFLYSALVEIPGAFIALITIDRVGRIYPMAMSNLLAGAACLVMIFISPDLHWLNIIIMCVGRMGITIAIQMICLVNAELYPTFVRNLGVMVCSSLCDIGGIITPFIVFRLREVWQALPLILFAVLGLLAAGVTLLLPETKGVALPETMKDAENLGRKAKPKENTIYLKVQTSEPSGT
Experimental: (§1) The wild-type cell lines of OCT1 and OCT2, as well as the variant cell lines OCT1*2 and *3, were generated using the Flp-In system (Thermo Fisher Scientific, Darmstadt, Germany) as described in previous publications. The cell line overexpressing OCT3 was a kind gift from Dr. Koepsell and Dr. Gorbulev (University of Würzburg, Germany). Cells transfected with the empty pcDNA5/FRT vector were used for the transport experiments as a control cell line. All cells were cultured approximately up to passage 30.
(§2) Forty-eight hours before the transport experiments, 600,000 cells were plated on 12-well plates pre-coated with poly-D-lysine and incubated at 37 °C with 5% CO2. The prepared 12-well plate with cells was positioned on a heating plate pre-warmed to 37 °C. After removing the medium, the cells were washed with 37 °C HBSS+ (10 mM HEPES in Hank’s balanced salt solution, pH 7.4). Then, one pre-defined concentration of a substrate was added to each well. The incubation period was stopped by adding 2 mL of 4 °C HBSS+ and removing the cells from the heating plate. The cells were washed twice with 4 °C HBSS+. For cell lysis, the cells were incubated for 15 min with 500 µL of 80% acetonitrile (LGC Standards, Wesel, Germany), which contained a respective internal standard (Table 1).
(§3) For concentration-dependent transport, the cells were incubated with defined substrate concentrations (0.1, 1, 10, 30, 100, 300, 600, 1000 µM) for the respective pre-defined incubation times. […] The uptake by a transporter was normalised to the uptake by empty vector-transfected cells. […] The results of transport experiments were normalized to the total protein concentration per well. Total protein quantification was performed using a bicinchoninic acid assay with bovine serum albumin as standard.
(§4) The ratios of cellular uptake were calculated by dividing the total uptake of transporter-overexpressing cells by the total uptake into empty vector transfected cells. The concentration-dependent cellular net uptake was used for analysis of transport kinetics by subtracting for each substrate concentration the uptake of empty vector-transfected cells from the uptake of transporter-overexpressing cells. […] The intrinsic clearance Clint was expressed with the ratio of Vmax and KM.

wild-type human OCT2 = biological target: T2, wild-type human OCT2 (Homo sapiens, UniProt O15244); test: Cellular uptake ratio, OCT2-overexpressing HEK293 cells vs empty vector; assay type: cell-based; settings: based on ratio uptake data at 1 µM
T2 sequence (O15244 1-555): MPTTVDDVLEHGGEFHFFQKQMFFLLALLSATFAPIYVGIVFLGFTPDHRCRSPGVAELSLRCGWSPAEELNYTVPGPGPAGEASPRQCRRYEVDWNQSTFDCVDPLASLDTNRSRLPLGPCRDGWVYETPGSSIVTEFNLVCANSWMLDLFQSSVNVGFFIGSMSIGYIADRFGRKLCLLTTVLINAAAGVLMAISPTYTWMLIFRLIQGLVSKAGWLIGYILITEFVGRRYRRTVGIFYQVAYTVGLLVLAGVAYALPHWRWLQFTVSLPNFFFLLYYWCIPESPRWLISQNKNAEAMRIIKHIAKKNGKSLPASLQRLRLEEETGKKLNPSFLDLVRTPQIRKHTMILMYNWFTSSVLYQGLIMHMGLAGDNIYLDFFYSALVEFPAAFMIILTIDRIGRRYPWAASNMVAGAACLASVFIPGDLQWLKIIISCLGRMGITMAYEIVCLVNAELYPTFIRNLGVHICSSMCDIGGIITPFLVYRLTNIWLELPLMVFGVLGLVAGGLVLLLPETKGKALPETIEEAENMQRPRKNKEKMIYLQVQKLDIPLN
Experimental: as §1, §2, §3, §4

OCT3 = biological target: T3, OCT3 (Homo sapiens, UniProt O75751); test: Cellular uptake ratio, OCT3-overexpressing HEK293 cells vs empty vector; assay type: cell-based; settings: based on ratio uptake data at 1 µM
T3 construct: expressed in transfected cells; host or cells: HEK293, stably transfected; gift from Dr. Koepsell and Dr. Gorbulev (University of Würzburg)
T3 sequence (O75751 1-556): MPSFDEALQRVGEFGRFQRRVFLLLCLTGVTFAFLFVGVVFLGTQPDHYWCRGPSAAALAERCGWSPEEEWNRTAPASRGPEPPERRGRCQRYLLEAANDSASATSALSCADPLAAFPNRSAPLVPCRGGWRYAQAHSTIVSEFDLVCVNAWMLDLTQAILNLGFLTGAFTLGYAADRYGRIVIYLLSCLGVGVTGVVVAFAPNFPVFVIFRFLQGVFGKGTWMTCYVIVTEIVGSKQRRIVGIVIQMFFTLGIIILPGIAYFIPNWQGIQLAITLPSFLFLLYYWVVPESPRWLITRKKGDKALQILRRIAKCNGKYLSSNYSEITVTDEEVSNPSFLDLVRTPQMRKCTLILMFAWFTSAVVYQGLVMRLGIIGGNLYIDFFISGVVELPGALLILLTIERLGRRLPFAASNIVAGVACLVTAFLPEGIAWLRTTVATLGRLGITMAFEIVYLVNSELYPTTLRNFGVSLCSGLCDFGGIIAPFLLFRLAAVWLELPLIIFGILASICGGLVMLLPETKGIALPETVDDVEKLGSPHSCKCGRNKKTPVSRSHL
Experimental: as §1, §2, §3, §4

mutant human OCT1 D474N = biological target: T4, mutant human OCT1 D474N (Homo sapiens, UniProt O15245, D474N); test: Cellular uptake by HEK293 cells overexpressing variant OCT1 D474N; assay type: cell-based; settings: p < 0.01
T4 construct: expressed in transfected cells
T4 sequence (O15245 1-554 D474N): T1 sequence (O15245 1-554) with D474N

human OCT1*1 (wild-type) [2] = biological target: T1, human OCT1*1 (wild-type); test: Concentration-dependent uptake (transport kinetics) in HEK293 cells overexpressing OCT1 wild-type; settings: for Clint (±SEM): intrinsic clearance = ratio of Vmax and KM, OCT1 wild-type
OCT1*3 (R61C) = biological target: T5, OCT1*3 (R61C) (Homo sapiens, UniProt O15245, R61C); test: Cellular uptake by HEK293 cells overexpressing OCT1*3; assay type: cell-based; settings: 1 µM substance
T5 construct: expressed in transfected cells
T5 sequence (O15245 1-554 R61C): T1 sequence (O15245 1-554) with R61C
Experimental: as §1, with “The transport experiments were performed using HEK293 cells that overexpress human OCT1*1 (wild-type), mutant human OCT1 D474N, variant human OCT1*2 (M420del) and OCT1*3 (R61C), wild-type human OCT2, and OCT3 after stable transfection. The wild-type” for “The wild-type”
as §2
(§5) For time-dependent transport, the cells were incubated with 1 µM of the substance for 15 to 240 s to determine the linear uptake range ≥ 15 s. For concentration-dependent transport, the cells were incubated with defined substrate concentrations (0.1, 1, 10, 30, 100, 300, 600, 1000 µM) for the respective pre-defined incubation times. […]; 100 µM) and pre-defined incubation times. The uptake by a transporter was normalised to the uptake by empty vector-transfected cells. […] The results of transport experiments were normalized to the total protein concentration per well. Total protein quantification was performed using a bicinchoninic acid assay with bovine serum albumin as standard.
(§6) The ratios of cellular uptake were calculated by dividing the total uptake of transporter-overexpressing cells by the total uptake into empty vector transfected cells. The concentration-dependent cellular net uptake was used for analysis of transport kinetics by subtracting for each substrate concentration the uptake of empty vector-transfected cells from the uptake of transporter-overexpressing cells. The transport kinetic parameters Vmax and KM were determined with non-linear regression by using the Michaelis–Menten equation for net uptake data and by using the Michaelis–Menten equation extended with a linear term for total uptake data (GraphPad Prism 5.01, GraphPad software, LA Jolla, CA, USA). The intrinsic clearance Clint was expressed with the ratio of Vmax and KM.

[3] = Concentration-dependent uptake into empty vector-transfected HEK293 cells; assay type: cell-based, human; settings: human, empty vector (pcDNA5/FRT)-transfected HEK293 cells, pH 7.4; empty vector-transfected HEK cells; read-out: intrinsic clearance
Experimental: as §1, with “The transport experiments were performed using HEK293 cells that overexpress human OCT1*1 (wild-type), mutant human OCT1 D474N, variant human OCT1*2 (M420del) and OCT1*3 (R61C), wild-type human OCT2, and OCT3 after stable transfection. The wild-type” for “The wild-type”
as §2, §5, §6

[4] = tested on: empty vector-transfected HEK cells; test: as above; assay type: cell-based, human; settings: uptake into empty vector-transfected cells
Experimental: as §1, with “The transport experiments were performed using HEK293 cells that overexpress human OCT1*1 (wild-type), mutant human OCT1 D474N, variant human OCT1*2 (M420del) and OCT1*3 (R61C), wild-type human OCT2, and OCT3 after stable transfection. The wild-type” for “The wild-type”
as §2, §5, §6

SMILES	OCT1 transport category (human OCT1*1 (wild-type) [1])	OCT2 transport category (wild-type human OCT2)	OCT3 transport category (OCT3)	enhancement of uptake by OCT1 D474N compared to wild-type (mutant human OCT1 D474N)	OCT1 substrate classification from concentration-dependent uptake (human OCT1*1 (wild-type) [2]; good >5, poor 1–5, non-substrate <1 µL/mg protein/min or uptake not above empty vector)	uptake by OCT1*3 in comparison to OCT1*1 (OCT1*3 (R61C))	microsomal CLint [3] [µL/min/mg]	Km [4] [µM]	Vmax [4] [pmol/mg protein/min]	Clint (±SEM) (human OCT1*1 (wild-type) [2]) [µL/mg Protein/min]	Clint (±SEM) (human OCT1*1 (wild-type) [2]; listed as methyldopa) [µL/mg Protein/min]
C[N+](C)(C)[C@@H](Cc1c[nH]c2ccccc12)C(=O)[O-] [Hypaphorine, hypaphorine]	0 (no transport by OCT1, OCT2, and OCT3 occurred (i.e., no kinetic parameters or uptake ratio <2 without significance))	0 (no transport by OCT1, OCT2, and OCT3 occurred (i.e., no kinetic parameters or uptake ratio <2 without significance))	0 (no transport by OCT1, OCT2, and OCT3 occurred (i.e., no kinetic parameters or uptake ratio <2 without significance))	two-fold enhancement; also recorded: significantly increased uptake by the variant OCT1 D474N	linear increase in total uptake of both cell lines	–	–	–	–	–	–
Nc1ccn([C@@H]2CS[C@H](CO)O2)c(=O)n1 [Lamivudine, lamivudine]	–	–	0 (no transport by OCT1, OCT2, and OCT3 occurred (i.e., no kinetic parameters or uptake ratio <2 without significance))	–	–	reduction in uptake	–	–	–	–	–
C[C@](N)(Cc1ccc(O)c(O)c1)C(=O)O [Methyldopa, L-(–)-α-methyldopa]	+/− (poor transport with a Clint < 5 or ratio between 1–2 with statistical significance (p < 0.05))	0 (no transport by OCT1, OCT2, and OCT3 occurred (i.e., no kinetic parameters or uptake ratio <2 without significance))	0 (no transport by OCT1, OCT2, and OCT3 occurred (i.e., no kinetic parameters or uptake ratio <2 without significance))	–	–	–	15.1	32.2	488	5.94 ± 4.63	5.94
